Results: ChEMBL document CHEMBL4507286 (2021)

Legend:
[1] = target: Activin receptor type-1-like (Homo sapiens) (UniProt P37023)
[2] = target: Serine/threonine-protein kinase WNK3 (Homo sapiens) (UniProt Q9BYP7)
[3] = target: Ephrin type-B receptor 1 (Homo sapiens) (UniProt P54762)
[4] = target: Ribosomal protein S6 kinase alpha-4 (Homo sapiens) (UniProt O75676)
[5] = target: Mitogen-activated protein kinase 1 (Homo sapiens, UniProt P28482)
[6] = target: Beta-adrenergic receptor kinase 1 (Homo sapiens) (UniProt P25098)
[7] = target: Tyrosine-protein kinase JAK1 (Homo sapiens) (UniProt P23458)
[8] = target: Ribosomal protein S6 kinase alpha-2 (Homo sapiens) (UniProt Q15349)
[9] = target: Ribosomal protein S6 kinase alpha-1 (Homo sapiens) (UniProt Q15418)
[10] = target: Serine/threonine-protein kinase ICK (Homo sapiens) (UniProt Q9UPZ9)
[11] = target: Serine/threonine-protein kinase D3 (Homo sapiens) (UniProt O94806)
[12] = target: Mitogen-activated protein kinase 15 (Homo sapiens) (UniProt Q8TD08)
[13] = target: Bone morphogenetic protein receptor type-1B (Homo sapiens) (UniProt O00238)
[14] = target: Activin receptor type-2B (Homo sapiens) (UniProt Q13705)
[15] = target: Tyrosine-protein kinase Tec (Homo sapiens) (UniProt P42680)
[16] = target: Interleukin-1 receptor-associated kinase 3 (Homo sapiens) (UniProt Q9Y616)
[17] = target: Protein kinase C iota type (Homo sapiens) (UniProt P41743)
[18] = target: Leucine-rich repeat serine/threonine-protein kinase 2 (Homo sapiens) (UniProt Q5S007)
[19] = target: Ephrin type-A receptor 1 (Homo sapiens) (UniProt P21709)
[20] = system: Receptor-type tyrosine-protein kinase FLT3 (Homo sapiens), P36888 [UNDEFINED MUTATION]
[21] = target: MAP kinase-activated protein kinase 5 (Homo sapiens) (UniProt Q8IW41)
[22] = target: Histamine H4 receptor (Homo sapiens) (UniProt Q9H3N8); conditions: Compound concentration 10.0 uM
[23] = target: Serine/threonine-protein kinase 25 (Homo sapiens) (UniProt O00506)
[24] = target: Serine/threonine-protein kinase SIK3 (Homo sapiens) (UniProt Q9Y2K2)
[25] = target: Mitogen-activated protein kinase 6 (Homo sapiens) (UniProt Q16659)
[26] = target: Serine/threonine-protein kinase PLK2 (Homo sapiens) (UniProt Q9NYY3)
[27] = target: Mitogen-activated protein kinase kinase kinase 10 (Homo sapiens) (UniProt Q02779)
[28] = target: Kappa-type opioid receptor (Homo sapiens) (UniProt P41145); conditions: Compound concentration 10.0 uM
[29] = target: Serine/threonine-protein kinase pim-1 (Homo sapiens) (UniProt P11309)
[30] = target: Serine/threonine-protein kinase Sgk2 (Homo sapiens) (UniProt Q9HBY8)
[31] = target: Serine/threonine-protein kinase VRK2 (Homo sapiens) (UniProt Q86Y07)
[32] = target: Tyrosine-protein kinase Fes/Fps (Homo sapiens) (UniProt P07332)
[33] = target: Protein-tyrosine kinase 2-beta (Homo sapiens) (UniProt Q14289)
[34] = target: Serine/threonine-protein kinase BRSK1 (Homo sapiens) (UniProt Q8TDC3)
[35] = system: Hepatocyte growth factor receptor (Homo sapiens), P08581 [Y1235D]
[36] = target: Serine/threonine-protein kinase B-raf (Homo sapiens) (UniProt P15056)
[37] = target: Vascular endothelial growth factor receptor 3 (Homo sapiens) (UniProt P35916)
[38] = target: Serine/threonine-protein kinase MARK1 (Homo sapiens) (UniProt Q9P0L2)
[39] = target: Cyclin-dependent kinase 9 (Homo sapiens) (UniProt P50750)
[40] = target: Mitogen-activated protein kinase kinase kinase 9 (Homo sapiens) (UniProt P80192)
[41] = system: Epidermal growth factor receptor (Homo sapiens), P00533 [UNDEFINED MUTATION]
[42] = target: MAP/microtubule affinity-regulating kinase 3 (Homo sapiens) (UniProt P27448)
[43] = target: Phosphatidylinositol 4-phosphate 5-kinase type-1 alpha (Homo sapiens) (UniProt Q99755)
[44] = target: Receptor tyrosine-protein kinase erbB-4 (Homo sapiens) (UniProt Q15303)
[45] = target: Serine/threonine-protein kinase LATS1 (Homo sapiens) (UniProt O95835)
[46] = Compound concentration 1000.0 nM
[47] = Compound concentration 100.0 nM

Chain of Ribosomal protein S6 kinase alpha-1 (Homo sapiens) (Q15418 whole entry): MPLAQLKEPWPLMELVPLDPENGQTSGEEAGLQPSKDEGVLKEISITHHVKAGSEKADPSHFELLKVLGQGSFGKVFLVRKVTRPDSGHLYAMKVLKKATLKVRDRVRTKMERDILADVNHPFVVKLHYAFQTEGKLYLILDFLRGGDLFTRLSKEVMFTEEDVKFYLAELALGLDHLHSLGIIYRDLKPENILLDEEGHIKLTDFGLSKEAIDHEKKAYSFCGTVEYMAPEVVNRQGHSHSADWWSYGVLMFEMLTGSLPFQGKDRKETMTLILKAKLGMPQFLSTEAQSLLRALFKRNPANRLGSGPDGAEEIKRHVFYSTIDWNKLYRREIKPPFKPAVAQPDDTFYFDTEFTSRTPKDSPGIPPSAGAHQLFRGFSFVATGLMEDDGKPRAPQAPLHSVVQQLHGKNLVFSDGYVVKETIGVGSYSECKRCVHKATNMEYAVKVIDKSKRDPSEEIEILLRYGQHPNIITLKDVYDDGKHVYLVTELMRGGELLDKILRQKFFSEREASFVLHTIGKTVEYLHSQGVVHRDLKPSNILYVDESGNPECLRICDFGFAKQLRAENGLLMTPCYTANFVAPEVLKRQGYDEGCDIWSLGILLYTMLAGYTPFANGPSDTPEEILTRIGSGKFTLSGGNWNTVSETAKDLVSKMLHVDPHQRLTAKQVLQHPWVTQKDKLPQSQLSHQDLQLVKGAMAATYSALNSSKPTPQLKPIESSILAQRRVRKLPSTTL
Chain of Serine/threonine-protein kinase pim-1 (Homo sapiens) (P11309 whole entry, looked up): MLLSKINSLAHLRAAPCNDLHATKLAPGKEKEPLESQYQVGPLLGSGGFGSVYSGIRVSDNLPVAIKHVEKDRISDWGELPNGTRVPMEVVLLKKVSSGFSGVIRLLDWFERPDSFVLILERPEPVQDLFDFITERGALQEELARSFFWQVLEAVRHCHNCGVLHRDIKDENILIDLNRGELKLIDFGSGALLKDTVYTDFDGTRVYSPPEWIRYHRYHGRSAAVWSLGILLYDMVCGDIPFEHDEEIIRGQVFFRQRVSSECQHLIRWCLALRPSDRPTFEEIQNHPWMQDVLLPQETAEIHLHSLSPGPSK
Chain of Ribosomal protein S6 kinase alpha-2 (Homo sapiens) (Q15349 whole entry): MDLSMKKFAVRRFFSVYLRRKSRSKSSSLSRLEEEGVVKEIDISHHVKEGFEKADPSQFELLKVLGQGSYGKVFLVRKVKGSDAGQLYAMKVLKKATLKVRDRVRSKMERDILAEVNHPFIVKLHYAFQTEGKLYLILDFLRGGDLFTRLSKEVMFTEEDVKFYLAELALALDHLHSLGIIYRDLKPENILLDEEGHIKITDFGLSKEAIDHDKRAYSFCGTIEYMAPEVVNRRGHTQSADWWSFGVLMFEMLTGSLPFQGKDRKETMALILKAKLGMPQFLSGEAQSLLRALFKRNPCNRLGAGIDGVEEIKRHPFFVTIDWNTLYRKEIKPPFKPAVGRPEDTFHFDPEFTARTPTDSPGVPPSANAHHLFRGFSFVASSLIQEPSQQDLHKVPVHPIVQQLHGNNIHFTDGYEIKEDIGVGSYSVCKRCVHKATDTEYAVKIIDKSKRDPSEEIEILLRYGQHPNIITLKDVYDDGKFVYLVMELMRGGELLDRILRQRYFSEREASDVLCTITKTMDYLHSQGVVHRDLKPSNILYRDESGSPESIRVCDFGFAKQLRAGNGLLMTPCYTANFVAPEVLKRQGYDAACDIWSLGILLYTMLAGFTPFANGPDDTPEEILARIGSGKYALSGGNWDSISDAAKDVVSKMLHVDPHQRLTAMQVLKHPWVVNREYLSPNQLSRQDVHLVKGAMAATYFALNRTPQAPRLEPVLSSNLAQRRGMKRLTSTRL
Chain of Mitogen-activated protein kinase kinase kinase 10 (Homo sapiens) (Q02779 whole entry, looked up): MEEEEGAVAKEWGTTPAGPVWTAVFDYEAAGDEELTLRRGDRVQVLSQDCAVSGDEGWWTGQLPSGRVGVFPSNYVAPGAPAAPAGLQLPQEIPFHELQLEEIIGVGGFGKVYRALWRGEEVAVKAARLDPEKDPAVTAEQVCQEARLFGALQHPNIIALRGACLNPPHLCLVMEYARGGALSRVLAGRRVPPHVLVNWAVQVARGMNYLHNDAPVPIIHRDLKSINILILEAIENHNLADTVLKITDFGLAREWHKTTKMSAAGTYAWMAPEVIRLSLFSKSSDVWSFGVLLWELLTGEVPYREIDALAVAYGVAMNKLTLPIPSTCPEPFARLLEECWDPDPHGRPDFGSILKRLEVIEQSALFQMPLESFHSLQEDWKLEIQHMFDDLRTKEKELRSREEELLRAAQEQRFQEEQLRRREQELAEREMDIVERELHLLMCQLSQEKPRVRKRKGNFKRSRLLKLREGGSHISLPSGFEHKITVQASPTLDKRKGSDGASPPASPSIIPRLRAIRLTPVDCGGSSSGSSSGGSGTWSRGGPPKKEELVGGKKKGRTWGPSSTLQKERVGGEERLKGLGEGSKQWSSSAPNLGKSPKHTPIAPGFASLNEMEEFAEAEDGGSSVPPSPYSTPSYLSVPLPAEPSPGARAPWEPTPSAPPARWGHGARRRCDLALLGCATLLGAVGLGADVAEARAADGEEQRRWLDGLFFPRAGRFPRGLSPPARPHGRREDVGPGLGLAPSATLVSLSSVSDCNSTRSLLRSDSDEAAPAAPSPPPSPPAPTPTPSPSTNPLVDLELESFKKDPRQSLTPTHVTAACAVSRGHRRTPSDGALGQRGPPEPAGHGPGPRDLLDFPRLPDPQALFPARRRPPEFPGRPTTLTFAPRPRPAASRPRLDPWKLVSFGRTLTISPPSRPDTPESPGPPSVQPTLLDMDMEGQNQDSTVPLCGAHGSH
Chain of Phosphatidylinositol 4-phosphate 5-kinase type-1 alpha (Homo sapiens) (Q99755 whole entry): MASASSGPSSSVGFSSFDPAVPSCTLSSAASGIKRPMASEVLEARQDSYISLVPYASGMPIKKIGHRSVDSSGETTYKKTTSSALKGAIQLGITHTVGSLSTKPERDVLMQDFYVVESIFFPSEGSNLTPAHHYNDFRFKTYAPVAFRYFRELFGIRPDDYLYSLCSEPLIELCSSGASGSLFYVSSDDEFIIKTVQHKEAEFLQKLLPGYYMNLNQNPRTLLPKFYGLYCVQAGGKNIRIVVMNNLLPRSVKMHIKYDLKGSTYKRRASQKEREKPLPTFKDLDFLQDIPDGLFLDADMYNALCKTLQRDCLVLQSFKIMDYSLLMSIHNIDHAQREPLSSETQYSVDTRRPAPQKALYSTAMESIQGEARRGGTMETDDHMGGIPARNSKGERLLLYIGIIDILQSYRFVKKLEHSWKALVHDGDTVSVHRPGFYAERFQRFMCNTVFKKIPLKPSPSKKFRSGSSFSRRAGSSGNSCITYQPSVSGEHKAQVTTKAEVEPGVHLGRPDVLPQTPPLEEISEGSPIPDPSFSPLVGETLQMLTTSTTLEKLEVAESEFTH
Chain of Mitogen-activated protein kinase 1 (P28482 whole entry): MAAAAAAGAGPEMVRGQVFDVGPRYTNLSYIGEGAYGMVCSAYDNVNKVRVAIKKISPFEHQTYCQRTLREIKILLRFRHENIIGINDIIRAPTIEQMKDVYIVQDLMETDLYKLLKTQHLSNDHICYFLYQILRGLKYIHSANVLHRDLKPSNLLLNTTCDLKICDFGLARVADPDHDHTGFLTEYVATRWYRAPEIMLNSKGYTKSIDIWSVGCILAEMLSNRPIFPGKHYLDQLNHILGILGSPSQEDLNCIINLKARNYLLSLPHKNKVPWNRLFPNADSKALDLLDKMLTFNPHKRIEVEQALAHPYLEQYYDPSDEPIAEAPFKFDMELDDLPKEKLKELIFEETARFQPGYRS
Chain of Serine/threonine-protein kinase 25 (Homo sapiens) (O00506 whole entry, looked up): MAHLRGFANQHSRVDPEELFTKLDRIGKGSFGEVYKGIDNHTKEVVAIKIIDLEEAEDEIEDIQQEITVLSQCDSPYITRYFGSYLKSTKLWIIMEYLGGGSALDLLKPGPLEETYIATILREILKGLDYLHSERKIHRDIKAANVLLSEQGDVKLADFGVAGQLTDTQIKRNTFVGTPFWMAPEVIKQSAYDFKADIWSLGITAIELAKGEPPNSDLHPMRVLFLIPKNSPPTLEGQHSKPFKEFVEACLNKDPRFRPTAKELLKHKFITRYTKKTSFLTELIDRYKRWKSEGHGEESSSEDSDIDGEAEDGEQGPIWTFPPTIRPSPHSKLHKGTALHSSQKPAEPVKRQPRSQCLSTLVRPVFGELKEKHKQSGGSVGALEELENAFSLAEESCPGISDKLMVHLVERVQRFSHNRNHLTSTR
Chain of Activin receptor type-2B (Homo sapiens) (Q13705 whole entry): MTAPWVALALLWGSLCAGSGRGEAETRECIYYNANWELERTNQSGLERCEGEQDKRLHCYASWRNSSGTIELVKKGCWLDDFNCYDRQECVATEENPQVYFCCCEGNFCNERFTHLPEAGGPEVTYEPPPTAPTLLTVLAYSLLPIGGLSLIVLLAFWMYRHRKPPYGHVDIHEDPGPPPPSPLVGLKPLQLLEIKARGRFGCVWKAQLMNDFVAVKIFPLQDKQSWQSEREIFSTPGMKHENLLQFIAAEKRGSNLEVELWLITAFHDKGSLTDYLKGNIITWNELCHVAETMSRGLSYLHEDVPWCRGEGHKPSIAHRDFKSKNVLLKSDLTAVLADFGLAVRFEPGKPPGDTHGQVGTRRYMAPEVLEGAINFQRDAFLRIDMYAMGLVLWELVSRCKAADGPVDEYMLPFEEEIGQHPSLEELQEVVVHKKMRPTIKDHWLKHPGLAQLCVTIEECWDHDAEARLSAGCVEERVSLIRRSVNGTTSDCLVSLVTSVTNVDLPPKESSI
Chain of Kappa-type opioid receptor (Homo sapiens) (P41145 whole entry): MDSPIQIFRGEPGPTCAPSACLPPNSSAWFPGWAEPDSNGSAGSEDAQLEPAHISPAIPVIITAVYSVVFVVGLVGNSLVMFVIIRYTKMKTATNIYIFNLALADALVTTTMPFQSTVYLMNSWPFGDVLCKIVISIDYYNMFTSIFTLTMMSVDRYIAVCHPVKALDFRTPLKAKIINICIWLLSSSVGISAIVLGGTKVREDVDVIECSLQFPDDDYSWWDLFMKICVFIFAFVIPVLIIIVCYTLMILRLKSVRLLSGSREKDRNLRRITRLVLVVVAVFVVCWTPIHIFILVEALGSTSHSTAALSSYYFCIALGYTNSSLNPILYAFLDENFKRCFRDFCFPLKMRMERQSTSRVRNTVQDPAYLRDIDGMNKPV

With `C[C@H](NC(=O)Nc1cc2[nH]ncc2c(CO)n1)c1ccccn1` [ERKi-NC] the residual activity [1, 46] was 92.3%, the residual activity [2, 46] was 100% and the residual activity [3, 46] was 100%. For the same molecule, the residual activity [4, 46] was 100%, the residual activity [5, 46] was 50% and the residual activity [6, 46] was 79.3%. For the same molecule, the residual activity [7, 46] was 42.4%, the residual activity [8, 46] was 100% and the residual activity [9, 46] was 100%. It also gave a residual activity [10, 46] of 71.4%, a residual activity [11, 46] of 100% and a residual activity [12, 46] of 100%. The residual activity [13, 46] was 100%, the residual activity [14, 46] was 86.2% and the residual activity [15, 46] was 100%. It also gave a residual activity [16, 46] of 99.3%, a residual activity [17, 46] of 85.5% and a residual activity [18, 46] of 71.3%. For the same molecule, the residual activity [19, 46] was 100%, the residual activity [20, 46] was 100% and the residual activity [21, 46] was 100%. For the same molecule, the inhibition [22] was 41.9%, the residual activity [23, 46] was 100% and the residual activity [24, 46] was 100%. It also gave a residual activity [25, 46] of 100%, a residual activity [26, 46] of 100% and a residual activity [27, 46] of 100%. It also gave an inhibition [28] of 22.9%, a residual activity [29, 46] of 78.2% and a residual activity [30, 46] of 100%. The residual activity [31, 46] was 100%, the residual activity [32, 46] was 100% and the residual activity [33, 46] was 100%. The residual activity [34, 46] was 100%, the residual activity [35, 46] was 100% and the residual activity [36, 46] was 100%. It also gave a residual activity [37, 46] of 100%, a residual activity [38, 46] of 78.7% and a residual activity [39, 46] of 100%. For the same molecule, the residual activity [40, 46] was 100%, the residual activity [41, 46] was 100% and the residual activity [42, 46] was 89.6%. The residual activity [43, 46] was 100%, the residual activity [44, 46] was 100% and the residual activity [45, 46] was 100%.

`C[C@@H](NC(=O)Nc1cc2[nH]ncc2c(CO)n1)c1ccccc1` [ERKi] was tested, and the residual activity [1, 47] was 90.9%, the residual activity [2, 47] was 47.3% and the residual activity [3, 47] was 91.1%. For the same molecule, the residual activity [4, 47] was 94.5%, the residual activity [5, 47] was 1% and the residual activity [6, 47] was 79.5%. For the same molecule, the residual activity [7, 47] was 77%, the residual activity [8, 47] was 90.7% and the residual activity [9, 47] was 100%. The residual activity [10, 47] was 80.9%, the residual activity [11, 47] was 100% and the residual activity [12, 47] was 37.1%. It also gave a residual activity [13, 47] of 69.4%, a residual activity [14, 47] of 87.6% and a residual activity [15, 47] of 93.6%. It also gave a residual activity [16, 47] of 80%, a residual activity [17, 47] of 100% and a residual activity [18, 47] of 94.6%. It also gave a residual activity [19, 47] of 100%, a residual activity [20, 47] of 80.7% and a residual activity [21, 47] of 80%. The inhibition [22] was 35.3%, the residual activity [23, 47] was 61.5% and the residual activity [24, 47] was 79.6%. It also gave a residual activity [25, 47] of 95.2%, a residual activity [26, 47] of 95.1% and a residual activity [27, 47] of 100%. The inhibition [28] was 10.3%, the residual activity [29, 47] was 90.3% and the residual activity [30, 47] was 66.7%. The residual activity [31, 47] was 76.3%, the residual activity [32, 47] was 100% and the residual activity [33, 47] was 75%. The residual activity [34, 47] was 88.4%, the residual activity [35, 47] was 90.5% and the residual activity [36, 47] was 86.9%. For the same molecule, the residual activity [37, 47] was 100%, the residual activity [38, 47] was 97% and the residual activity [39, 47] was 95.4%. It also gave a residual activity [40, 47] of 95.7%, a residual activity [41, 47] of 92.2% and a residual activity [42, 47] of 100%. The residual activity [43, 47] was 84.5%, the residual activity [44, 47] was 97.6% and the residual activity [45, 47] was 59.3%.
